Publication PMC11279411, “Structure-Based Identification of Novel Histone Deacetylase 4 (HDAC4) Inhibitors” (Pharmaceuticals, 2024)
Read-outs that look alike come from different tables or passages of the source.

Legend:
[1] = target: HDAC4 (Homo sapiens, UniProt P56524); assay: HDAC4 fluorogenic activity assay (BPS Bioscience kit); conditions: for relative percent activity of HDAC4 (activity retained): 100 μM compound, compared to absence of inhibitor; for IC50 fold lower for HDAC4 than HDAC3: selectivity HDAC4 over HDAC3 from IC50 values
HDAC4, sequence (P56524 whole entry): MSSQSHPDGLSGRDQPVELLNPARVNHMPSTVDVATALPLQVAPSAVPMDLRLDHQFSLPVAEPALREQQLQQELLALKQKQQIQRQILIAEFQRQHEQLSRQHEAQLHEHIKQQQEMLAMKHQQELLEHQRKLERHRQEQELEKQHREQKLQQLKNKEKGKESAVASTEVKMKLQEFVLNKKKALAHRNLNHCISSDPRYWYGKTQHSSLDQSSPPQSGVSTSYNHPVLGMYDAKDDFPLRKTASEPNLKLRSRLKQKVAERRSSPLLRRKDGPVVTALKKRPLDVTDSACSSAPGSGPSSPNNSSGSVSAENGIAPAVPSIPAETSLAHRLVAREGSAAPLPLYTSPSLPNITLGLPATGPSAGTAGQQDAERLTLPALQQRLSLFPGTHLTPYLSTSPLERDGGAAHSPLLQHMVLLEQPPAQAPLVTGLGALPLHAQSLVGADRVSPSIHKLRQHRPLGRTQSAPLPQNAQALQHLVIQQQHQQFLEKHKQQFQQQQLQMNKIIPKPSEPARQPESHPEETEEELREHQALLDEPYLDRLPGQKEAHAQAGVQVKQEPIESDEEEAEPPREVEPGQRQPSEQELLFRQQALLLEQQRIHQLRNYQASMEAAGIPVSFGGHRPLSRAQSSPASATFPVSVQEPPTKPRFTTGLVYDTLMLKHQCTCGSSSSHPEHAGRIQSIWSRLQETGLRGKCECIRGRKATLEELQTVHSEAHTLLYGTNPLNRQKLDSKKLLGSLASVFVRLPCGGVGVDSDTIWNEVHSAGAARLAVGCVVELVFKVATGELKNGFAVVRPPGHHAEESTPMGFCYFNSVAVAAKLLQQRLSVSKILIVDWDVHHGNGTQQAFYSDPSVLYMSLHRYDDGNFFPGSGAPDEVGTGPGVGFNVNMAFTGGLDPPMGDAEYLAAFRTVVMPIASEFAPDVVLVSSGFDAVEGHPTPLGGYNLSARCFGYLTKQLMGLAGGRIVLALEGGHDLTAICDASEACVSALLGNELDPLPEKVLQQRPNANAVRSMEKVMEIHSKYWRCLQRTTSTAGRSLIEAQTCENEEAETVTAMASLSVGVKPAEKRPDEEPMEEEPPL
Description: (§2) HDAC3 and HDAC4 activity assays were performed using fluorogenic assay kits obtained from BPS Bioscience (San Diego, CA, USA) by following the protocol that is supplied by the manufacturer. Briefly, purified enzyme (40 pg/μL HDAC3 or 1.2 pg/μL HDAC4) in a total of 50 μL buffer containing 0.1% BSA was incubated with substrate (20 μM for HDAC3 and 2 μM for HDAC4) at 37 °C for 30 min in a 96-well plate. A fluorescence developer (50 μL) was added and the plate was incubated at room temperature for a further 15 min. The activity of the enzymes in the absence and presence of compounds was measured on a BioTek Cytation 5 plate reader, exciting the samples at 350 nm and measuring emission at 450 nm. Compounds were prepared as 10 mM stocks in DMSO, diluted to 1 mM in 20 mM NaHEPES, 150 mM NaCl, pH 7.4 buffer, and were screened at 100 μM in the assays at least in duplicate. A positive control with 1% DMSO added in lieu of an inhibitor and a negative control without enzyme were also prepared in each assay plate. The negative control was subtracted from all fluorescence values, while the positive control was used as the reference for 100% activity of the enzyme.

[2] = system: human breast carcinoma MDA-MB231 cell line; assay: MTT cell viability assay, MDA-MB231; conditions: for IC50 / viability at 100 µM: MDA-MB-231, 48 h; for IC50: read-out: IC50 (cell viability); for viability at 100 µM: read-out: Relative cell viability
Description: (§1) Cell viability assays were determined using Methyl Thiazolyl Tetrazolium (MTT) assay (Travigen, Gaithersburg, MD, USA). A total of 5 × 10^3 SW780 (human transitional urinary bladder cancer cell line) or 1 × 10^4 (human triple-negative breast cancer cell line MDA-MB231, American Type Culture Collection [ATCC], Rockville, MD, USA) in 100 µL of culture media were seeded to each well of 96-well culture plates. These cell lines were chosen based on previous work. The MDA-MB231 and SW780 cell lines were cultured in Dulbecco’s modified Eagle’s medium (DMEM) with 10% or 5% heat-inactivated fetal bovine serum, respectively, 100 U/mL penicillin, and 100 µg/mL streptomycin. Cultures were maintained in 5% CO2 at 37 °C and subcultured every 2–3 days. At 24 h after seeding, cells were treated with various concentrations of potential HDAC inhibiting compounds for 48 h (100 µM for initial screening, […], 1, 10, 100, 250, and 500 µM for the dose–response experiment). Subsequently, 10 µL of MTT reagent was added to each well and incubated for 4 h, followed by the addition of 100 µL of detergent reagent. The plate was incubated overnight. The reduced MTT reagent in cultures was measured at 570 nm by using an ELISA reader (Bio-Tek, Winooski, VT, USA). The IC50 for each compound was calculated from fitted nonlinear regression dose–response curves.

[3] = target: HDAC3 (Homo sapiens, UniProt O15379); assay: HDAC3 fluorogenic activity assay (BPS Bioscience kit); conditions: for relative percent activity of HDAC3 (activity retained) / decrease of HDAC3 activity: 100 μM compound; for relative percent activity of HDAC3 (activity retained): compared to absence of inhibitor
HDAC3, sequence (O15379 whole entry): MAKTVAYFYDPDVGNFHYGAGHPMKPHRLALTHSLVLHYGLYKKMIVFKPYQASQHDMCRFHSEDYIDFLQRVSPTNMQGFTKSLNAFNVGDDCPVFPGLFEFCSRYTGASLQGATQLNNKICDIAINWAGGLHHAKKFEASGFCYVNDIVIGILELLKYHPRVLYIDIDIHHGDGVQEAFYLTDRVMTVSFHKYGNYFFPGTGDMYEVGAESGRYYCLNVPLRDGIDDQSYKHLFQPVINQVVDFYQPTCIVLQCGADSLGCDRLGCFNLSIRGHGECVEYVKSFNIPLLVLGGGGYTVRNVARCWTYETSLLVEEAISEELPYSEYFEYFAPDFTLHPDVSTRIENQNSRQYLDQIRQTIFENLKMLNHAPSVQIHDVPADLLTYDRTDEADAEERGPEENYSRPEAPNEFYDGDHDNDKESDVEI
HDAC3, sequence (Q9Y618 395-489 partner limits assumed): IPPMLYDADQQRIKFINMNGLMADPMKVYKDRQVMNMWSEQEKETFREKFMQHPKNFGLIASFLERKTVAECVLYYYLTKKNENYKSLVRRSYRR
Description: as §2

[4] = system: transitional urothelial carcinoma SW780 cell line; assay: MTT cell viability assay, SW780; conditions: Homo sapiens; for IC50 / viability at 100 µM: SW780, 48 h; for IC50: read-out: IC50 (cell viability); for viability at 100 µM: read-out: Relative cell viability
Description: as §1

[5] = read-out: IC50 (μM) for HDAC4, highest concentration 500 μM
[6] = read-out: IC50 (μM) for HDAC3, highest concentration 500 μM

SMILES	IC50 [3, 6]	relative percent activity of HDAC4 (activity retained) [1]	IC50 ([2]; Homo sapiens)	viability at 100 µM ([2]; Homo sapiens)	IC50 [4]	IC50 [3]	further results
O=C(Nc1ccc(C2=NCCN2)cc1)c1ccc(Cl)c(C(=O)Nc2ccc(C3=NCCN3)cc2)c1 [Compound 67436]	–	≤ 40%	138 ± 23 µM	< 60%	131 ± 26 µM	9.2 ± 5.2 µM	IC50 [1]: 47 ± 28 µM; viability at 100 µM [4]: < 50%; relative percent activity of HDAC3 (activity retained) [3]: ≤ 40%; HDAC3 IC50 relative to that for HDAC4 ([3]; selectivity HDAC3 over HDAC4 from IC50 values): five times lower
CC12CCC(C(NC(=S)NN)C1=O)C2(C)C (centres unmarked) [Compound 36425]	> 500 µM	–	–	–	–	–	IC50 [1, 5]: 480 ± 260 µM
NC(=S)NN=Cc1cc(-c2cccc(N)c2)ccn1 [Compound 195327]	–	unchanged	37 ± 17 µM	< 60%	89 ± 48 µM	> 500 µM	IC50 (μM) for HDAC4 ([1]; highest concentration 500 μM): did not inhibit; viability at 100 µM [4]: < 50%; decrease of HDAC3 activity [3]: 80%; IC50 (μM) for HDAC3 ([3]; highest concentration 500 μM): no inhibition
COc1cc(C2NC(=O)C(C#N)=C(Nc3cccc(C)c3)S2)ccc1O (centres unmarked) [Compound 319435]	–	–	–	–	–	> 500 µM	IC50 [1]: 150 ± 50 µM; IC50 fold lower for HDAC4 than HDAC3 [1]: at least 2 fold
COc1cccc2c1cc([N+](=O)[O-])c1c(C(=O)O)cc3c(c12)OCO3 [Compound 11926]	–	–	126 ± 10 µM	< 60%	223 ± 49 µM	> 500 µM	viability at 500 µM ([2]; Homo sapiens, MDA-MB-231, read-out: cell viability): 9%; viability at 100 µM [4]: < 50%; viability at 500 µM ([4]; SW780, read-out: cell viability): 45%
COc1ccc2c(c1)NP(=S)(Oc1ccccc1)N2 (centres unmarked) [Compound 88402]	–	< 40%	–	–	–	210 ± 60 µM	IC50 [1]: 100 ± 40 µM; IC50 fold lower for HDAC4 than HDAC3 [1]: at least 2 fold; Relative cell viability ([2]; MDA-MB231, 100 µM compound, 48 h, untreated cells = 100%): did not show activity; relative percent activity of HDAC3 (activity retained) [3]: 75%
CCOC(=O)C(=NO)C1=CSC2=NNC(C)(C)N12 [Compound 299968]	–	–	113 ± 19 µM	< 60%	300 ± 17 µM	> 500 µM	IC50 [1]: 250 ± 170 µM; IC50 fold lower for HDAC4 than HDAC3 [1]: at least 2 fold
CCCn1cnc2c(Sc3c([N+](=O)[O-])ncn3C)nc(N)nc21 [Compound 44584]	–	unchanged	137 ± 18 µM	< 60%	213 ± 13 µM	> 500 µM	decrease of HDAC3 activity [3]: 60%
O=C(CN1CCOCC1)N1CCOCC1 [Compound 51936]	> 500 µM	–	–	–	–	–	IC50 [1, 5]: 550 ± 350 µM

Now from value to compound, other results behind:

IC50 [3, 6]	SMILES	relative percent activity of HDAC4 (activity retained) [1]	IC50 ([2]; Homo sapiens)	viability at 100 µM ([2]; Homo sapiens)	IC50 [4]	IC50 [3]	further results
25 ± 7 µM	NS(=O)(=O)c1ccc(N=Nc2ccc(=O)[nH]c2O)cc1 [Compound 134199]	≤ 40%	–	–	–	–	IC50 [1, 5]: 33 ± 12 µM; Relative cell viability ([2]; 100 µM): little potency; relative percent activity of HDAC3 (activity retained) [3]: ≤ 40%
> 500 µM	CCOC(=O)C(=CNc1ccccc1Cl)C(=O)OCC [Compound 79887]	–	–	–	–	–	–
> 500 µM	CCOC(=O)C1C(=O)C(=O)N(C(C)C)C1C(=O)OCC (centres unmarked) [Compound 55172]	–	–	–	–	–	–
> 500 µM	O=[N+]([O-])c1cc(-c2cccnc2)n[nH]1 [Compound 4135]	–	–	–	–	–	IC50 [1, 5]: 410 ± 240 µM
> 500 µM	CN(C)c1ncnc2c1ncn2-c1ccccc1 [Compound 34488]	unchanged	–	–	–	–	decrease of HDAC3 activity [3]: 50%
